One may read the IC50 as the midpoint of a concentration-inhibition curve.

This note sets out measurements from patent US5476953A, “Biologically active amides containing a bicyclo moiety” (Cornell Research Foundation, Inc., priority 1994, dated 1995).

In experiment [1] the test system is HCT116 human colon carcinoma cells. Nature of the experiment: In vitro cytotoxicity, crystal violet assay, HCT116 human colon carcinoma. The format is cell-based. To be noted: HCT-116, inhibition of cell proliferation to 50% of untreated control, 72 hours. The method, then: Methanolic extract, obtained on thawing about 1 g frozen sponge by immersion in 20 ml methanol, was assessed for in vitro cytotoxicity in HCT116 human colon carcinoma cells using the crystal violet assay as described in Catino, J. J., et al, Cancer Chemothr. Pharmacol. 15: 240-243, 1985. Particularly, cells were plated at 4000 cells/well in 96 well microtiter plates and 24 hours later samples were added and serial diluted. The cells were incubated at 37° C. for 72 hours. The media was then removed and the cells fixed for 10 minutes with 3.7% formaldehyde in 1 X phosphate buffered saline. The fixing solution was removed and the cells stained with a 0.0075% crystal violet solution for 15 minutes. The cells were then allowed to dry. Rough IC50 values (IC50 being the drug concentration required to inhibit cell proliferation to 50% of that of untreated control cells), expressed as a dilution factor from a 2 mg/ml starting concentration, were determined by visual examination, compared to untreated control wells.
Cytotoxicity was assessed for pure Icadamide A and for pure Icadamide B in an HCT116 human colon carcinoma cell line by the crystal violet assay described previously. […] The IC50 is the drug concentration required to inhibit cell proliferation to 50% of that of untreated control cells.

Experiment [2] deals with M109 mouse lung tumor, ip. Description: In vivo antitumor activity against ip implanted M109 mouse lung tumor. Particulars: for MST % T/C: qd 1-5, ip, active ≥125%. The method, then: (§1) For evaluation of antitumor activity versus M109 mouse lung tumors, experiments were begun by implanting 0.5 ml of a 2.0% brei ip or 0.1 ml subcutaneously (sc) in CDF1 mice as described in Rose, W. C., Cancer Treat. Rep. 65: 299-312 (1981). Icadamide B was administered either intraperitoneally (ip), intravenously (iv) or subcutaneously (sc) by alzet pump according to dosage amounts and schedule set forth in Table IV below. Results are expressed as % T/C, i.e., percentage of median survival time of treated (T) versus control (C) groups. A % T/C of ≥125% was considered an active result. Results are also expressed in terms of tumor growth inhibition, particularly the median times for tumors in treated (T) mice to reach a 1 g size minus the median times for control (C) mice to reach a 1 g size, denoted T-C. Tumor weights were interchangeable with tumor size on the basis of 1 mm^3 =1 mg. The activity criterion for T-C is approximately equal to 4 days. Depending on the tumor volume doubling time for M109 tumors in control mice, this amount of delay in tumor growth is consistent with about one log of cell kill.

For experiment [3], the system named is asbestos-induced pulmonary squamous cell carcinoma (ASB), sc. Description: In vivo antitumor activity against sc implanted asbestos-induced pulmonary squamous cell carcinoma (ASB). Also on record: species or system mouse. How it is done: (§2) For evaluation of antitumor activity versus the asbestos-induced pulmonary squamous cell carcinoma (ASB), CDF1 mice were implanted either intraperitoneally (ip) or subcutaneously (sc) with 0.5 ml or 0.1 ml of a 2% brei, respectively. […] Results were evaluated on the same basis as described above for M109 mouse lung tumors except that the activity criterion for tumor growth inhibition was a T-C of ≥6 days.

Experiment [4] has as its system M109 mouse lung tumor, sc. Nature of the experiment: In vivo antitumor activity against sc implanted M109 mouse lung tumor. Particulars: for MST % T/C: active ≥125%; for T-C: time to 1 g tumor, activity criterion approximately 4 days. The method, then:
as §1

The test system of the next experiment is P388 mouse leukemia, ip. Nature of the experiment: In vivo antitumor activity against ip implanted P388 mouse leukemia. The method, then:
For evaluation of antitumor activity against P388 mouse leukemia cells, 1 X 10^6 P 388 leukemia cells were implanted in the intraperitoneal (ip) cavity of (BALB/c X DBA/2)F1 (CDF1) or (C57BL/6 X DBA/2)F1 (BDF1) mice according to the procedure as described in Rose, W. C., et al, Cancer Res. 43: 1504-1510 (1983). Icadamide B was dissolved in DMSO and diluted with saline to the desired concentrations. Injection of Icadamide B was by the ip route beginning on the first day after tumor implantation and consecutively every day for five treatments (q1dX5:1). Increases in lifespan were reflected by the median survival time of treated (T) versus control (C) groups for which a % T/C was calculated. A % T/C of ≥125% was considered an active result.

Experiment [5] has as its system asbestos-induced pulmonary squamous cell carcinoma (ASB), ip. Description: In vivo antitumor activity against ip implanted asbestos-induced pulmonary squamous cell carcinoma (ASB). Also noted: species or system mouse. How it is done: as §2
The mark [6] stands for this setting: a) 0.020 mg/kg/inj, d. 1, 4 & 7, iv.
Where [7] appears, read: b) 0.128 mg/kg/inj, d. 1, 3, 5, 7 & 9, iv.
The mark [8] stands for this setting: e) 0.032-0.0537 mg/kg daily, qd 4-10, subcutaneously implanted Alzet pump (scap).

Structures are written as SMILES. Several values for one entry are separate records, joined by “and”; a condition that tells them apart may be missing. Equal entries are not always repeated.

As to `C=C1CC(OC)(C(O)C(=O)NC2OCOC3C2OC(CC(O)/C=C/C/C=C/C=C/C(=O)NC(CCCNC(=N)N)C(=O)O)C(C)(C)C3OC)OC(C)C1C` (centres unmarked) [Icadamide A], inhibition in experiment [1] was half-maximal at 63 nM (IC50).
For the compound `C=C1CC(OC)(C(O)C(=O)NC2OCOC3C2OC(CC(O)/C=C/CCCCCCO)C(C)(C)C3OC)OC(C)C1C` (centres unmarked) [Icadamide B], the “MST % T/C” value in experiment [2] (a) 0.016 mg/kg/inj) came out at 163%; in experiment [2] (b) 0.008 mg/kg/inj), 150%; in experiment [3] (0.032/0.128 mg/kg/inj, qd 4-8, iv, active ≥125%), 129%; in experiment [4] (setting [6]) it was 135%; in experiment [4] (setting [7]), 97%; in experiment [4] (c) 0.016 mg/kg/inj, qd 4-8, iv) it was 119%. The “MST % T/C” value in experiment [4] (d) 0.013 mg/kg/inj, qd 4-8, ip) was 109%; in experiment [4] (setting [8]) it was 102%; in the experiment on P388 mouse leukemia, ip (0.016 mg/kg/inj, qd 1-5, ip; two separate experiments a) and b), active ≥125%), 181% and 143%; in experiment [5] (0.008 mg/kg/inj, qd 4-8, ip, active ≥125%), 121%. The “activity (in words)” value is reported as “good activity” in experiment [2] (ip implanted M109); “good activity” in the experiment with P388 mouse leukemia, ip (ip implanted P388); “poor activity” in experiment [5] (ip implanted ASB). The “increase in lifespan” value was 63% and 50% in experiment [2] (maximally tolerated doses, ip); 43% and 81% in the experiment with P388 mouse leukemia, ip (maximally tolerated dose, ip, two separate experiments). For the same compound, the T-C in experiment [3] (0.032/0.128 mg/kg/inj, qd 4-8, iv, time to 1 g tumor, activity criterion ≥6 days) was 3.0 days and 3 days; in experiment [4] (setting [6]), -0.3 days; in experiment [4] (setting [7]), 0 days; in experiment [4] (c) 0.016 mg/kg/inj, qd 4-8, iv) it was 0.3 days; in experiment [4] (d) 0.013 mg/kg/inj, qd 4-8, ip), 2.5 days; in experiment [4] (setting [8]) it was 3.3 days. Further, the “distal site activity (in words)” value in experiment [3] (sc implanted ASB) was “little distal site activity”. For the same compound, in experiment [4] (sc implanted M109), the “increase in lifespan (in words)” value is listed as “marginal increases in lifespan”. For the same compound, in experiment [4] (sc implanted M109), the “tumor growth delay (in words)” value is given as “negligible tumor growth delays”. Besides, half-maximal inhibition in experiment [1] (IC50) was put at 0.17 nM.
